The text below walks through data of patent US20240300980A1, “HETEROCYCLIC COMPOUNDS AS KRAS INHIBITOR, AND PREPARATION THEREFOR AND USE THEREOF IN TREATMENT” (SHANGHAI KECHOW PHARMA, INC., priority 2021, published 2024).

Some results are limits rather than exact numbers.

The assay deals with AGS cells (KRAS^G12D). Put plainly: Detection of cell proliferation in vitro by MTT/MTS method (cell activity experiment). It is filed as cell-based. Particulars: Homo sapiens, AGS, 72 h, AGS cells; MTT/MTS; 3 days of drug treatment; read-out: AGS IC50. In short, it runs like this: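 KRAS G12D AGS cells seeded at 1000 per well, compound added 24 h later, 0.5% final DMSO. Viability read after 3 days of treatment by MTT (solubilised in DMSO) or MTS, 4 h, absorbance 490 nm. IC50 from dose–response curves versus DMSO control.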
A general note: Tetrazolium dyes change colour on reduction, which living cells bring about.
For `C#Cc1cccc2cc(O)cc(-c3ncc4c(N5C[C@H]6CC[C@@H](C5)C6(F)F)nc(OC[C@@]56CCCN5C[C@H](F)C6)nc4c3F)c12` [Example 32, 4-(4-((1R,5S)-8,8-difluoro-3-azabicyclo [3.2.1]octan-3-yl)-8-fluoro-2-(((2R,7aS)-2-fluorotetrahydro-1H-pyrrolizin-7a(5H)-yl)methoxy)pyrido[4,3-d]pyrimidin-7-yl)-5-ethynylnaphthalen-2-ol], the IC50 (commonly the concentration that gives 50% inhibition) was over 2500 nM.

For the compound `CC1OCCc2cc(O)cc(C3=C(F)c4nc(OC[C@@]56CCCN5C[C@H](F)C6)nc(N5C[C@H]6CC[C@@H](C5)N6)c4C4=NCCN43)c21` (stereo partly drawn) [Example 410, 8-(10-((1R,5S)-3,8-diazabicyclo[3.2.1]octan-3-yl)-6-fluoro-8-(((2R,7aS)-2-fluorotetrahydro-1H-pyrrolizin-7a(5H)-yl)methoxy)-2,3-dihydroimidazo[1′,2′:1,2]pyrido[4,3-d]pyrimidin-5-yl)-1-methylisochroman-6-ol], the IC50 worked out at 75 nM.

Take `C#Cc1c(F)ccc2cc(O)cc(-c3ncc4c(N5CC6(CNC6)C5)nc(OC[C@@]56CCCN5C[C@H](F)C6)nc4c3F)c12` [Example 70, 5-ethynyl-6-fluoro-4-(8-fluoro-2-(((2R, 7aS)-2-fluorotetrahydro-1H-pyrrolizin-7a(5H)-yl)methoxy)-4-(2,6-diazaspiro[3.3]heptan-2-yl)pyrido[4,3-d]pyrimidin-7-yl)naphthalen-2-ol]: the IC50 is over 2500 nM.

As for `C#Cc1c(F)ccc2cc(O)cc(-c3ccc4c(N5C[C@H]6CC[C@@H](C5)N6)nc(OC[C@]56CCCN5[C@@H](COC(=O)N(C)C)CC6)nc4n3)c12` [Example 145, ((3R,7aR)-7a-(((4-((1R, 5S)-3,8-diazabicyclo [3.2.1]octan-3-yl)-7-(8-ethynyl-7-fluoro-3-hydroxynaphthalen-1-yl)pyrido[2,3-d]pyrimidin-2-yl)oxy)methyl)hexahydro-1H-pyrrolizin-3-yl)methyl dimethylcarbamate], the half-maximal inhibitory concentration (IC50) was over 2500 nM.

In the case of `C#Cc1c(F)ccc2cc(O)cc(-c3ccc4c(N5C[C@H]6CC[C@@H](C5)N6)c(C#N)c(OC[C@@]56CCCN5C[C@H](F)C6)nc4c3)c12` [Example 171, 4-((1R,5S)-3,8-diazabicyclo[3.2.1]octan-3-yl)-7-(8-ethynyl-7-fluoro-3-hydroxynaphthalen-1-yl)-2-(((2R,7aS)-2-fluorotetrahydro-1H-pyrrolizin-7a(5H)-yl)methoxy)quinoline-3-carbonitrile], the IC50 was 1240 nM.

Regarding `CC1CCCc2cc(O)cc(-c3c(-c4cn[nH]c4)cc4c(N5C[C@H]6CC[C@@H](C5)N6)nc(OC[C@@]56CCCN5C[C@H](F)C6)nc4c3F)c21` (stereo partly drawn) [Example 376, 4-(4-((1R,5S)-3,8-diazabicyclo[3.2.1]octan-3-yl)-8-fluoro-2-(((2R,7aS)-2-fluorotetrahydro-1H-pyrrolizin-7a(5H)-yl)methoxy)-6-(1H-pyrazol-4-yl)quinazolin-7-yl)-5-methyl-5,6,7,8-tetrahydronaphthalen-2-ol], the 50% inhibitory concentration (IC50) is 100 nM.

On to `Oc1cc2c(c(-c3ncc4c(N5C[C@H]6CC[C@@H](C5)N6)nc(OC[C@@]56CCCN5C[C@H](F)C6)nc4c3F)c1)C1(CCC2)CC1` [Example 256, 8′-(4-((1R,5S)-3,8-diazabicyclo[3.2.1]octan-3-yl)-8-fluoro-2-(((2R,7aS)-2-fluorotetrahydro-1H-pyrrolizin-7a(5H)-yl)methoxy)pyrido[4,3-d]pyrimidin-7-yl)-3′,4′-dihydro-2′H-spiro[cyclopropane-1,1′-naphthalen]-6′-ol], for which the IC50 was found to be 303 nM.

Regarding `CCC1CCc2cc(O)cc(-c3cc4nc(OC[C@@]56CCCN5C[C@H](F)C6)nc(N5C[C@H]6CC[C@@H](C5)N6)c4c4occc34)c21` (stereo partly drawn) [Example 386, 7-(9-((1R,5S)-3,8-diazabicyclo[3.2.1]octan-3-yl)-7-(((2R,7aS)-2-fluorotetrahydro-1H-pyrrolizin-7a(5H)-yl)methoxy)furo[2,3-f]quinazolin-4-yl)-1-ethyl-2,3-dihydro-1H-inden-5-ol], the IC50 came out at 508 nM.

`C#Cc1c(F)ccc2cc(O)cc(-c3ccc4c(N5CC(C(N)=O)C5)nc(OC[C@@]56CCCN5C[C@H](F)C6)nc4c3F)c12` [Example 215, 1-(7-(8-ethynyl-7-fluoro-3-hydroxynaphthalen-1-yl)-8-fluoro-2-(((2R,7aS)-2-fluorotetrahydro-1H-pyrrolizin-7a(5H)-yl)methoxy)quinazolin-4-yl)azetidine-3-carboxamide]: the IC50 is over 2500 nM.

Take `Oc1cc2c(c(-c3ncc4c(N5C[C@H]6CC[C@@H](C5)N6)nc(OC[C@@]56CCCN5C[C@H](F)C6)nc4c3F)c1)C(CC(F)(F)F)CC2` (stereo partly drawn) [Example 257, 7-(4-((1R,5S)-3,8-diazabicyclo[3.2.1]octan-3-yl)-8-fluoro-2-(((2R,7aS)-2-fluorotetrahydro-1H-pyrrolizin-7a(5H)-yl)methoxy)pyrido[4,3-d]pyrimidin-7-yl)-1-(2,2,2-trifluoroethyl)-2,3-dihydro-1H-inden-5-ol]: the IC50 amounted to 1850 nM.

As for `CC1CCCc2cc(O)cc(C3=C(F)c4nc(OC[C@@]56CCCN5C[C@H](F)C6)nc(N5C[C@H]6CC[C@@H](C5)N6)c4C4=NCCN43)c21` (stereo partly drawn) [Example 407, 4-(10-((1R,5S)-3,8-diazabicyclo[3.2.1]octan-3-yl)-6-fluoro-8-(((2R,7aS)-2-fluorotetrahydro-1H-pyrrolizin-7a(5H)-yl)methoxy)-2,3-dihydroimidazo[1′,2′:1,2]pyrido[4,3-d]pyrimidin-5-yl)-5-methyl-5,6,7,8-tetrahydronaphthalen-2-ol], the half-maximal inhibitory concentration (IC50) is 35 nM.

As for `Oc1cc(C2=C(F)c3nc(OC[C@@]45CCCN4C[C@H](F)C5)nc(N4C[C@H]5CC[C@@H](C4)N5)c3C3=NCCN32)c2ccccc2c1` [Example 401, 4-(10-((1R,5S)-3,8-diazabicyclo[3.2.1]octan-3-yl)-6-fluoro-8-(((2R,7aS)-2-fluorotetrahydro-1H-pyrrolizin-7a(5H)-yl)methoxy)-2,3-dihydroimidazo[1′,2′:1,2]pyrido[4,3-d]pyrimidin-5-yl)naphthalen-2-ol], the IC50 came to 100 nM.

As for `N#Cc1c(OC[C@@]23CCCN2C[C@H](F)C3)nc2cc(-c3cc(O)cc4ccc(F)c(F)c34)ccc2c1N1C[C@H]2CC[C@@H](C1)N2` [Example 175, 4-((1R,5S)-3,8-diazabicyclo[3.2.1]octan-3-yl)-7-(7,8-difluoro-3-hydroxynaphthalen-1-yl)-2-(((2R,7aS)-2-fluorotetrahydro-1H-pyrrolizin-7a(5H)-yl)methoxy)quinoline-3-carbonitrile], the IC50 was 1330 nM.

As to `C#Cc1c(F)ccc2cc(O)cc(-c3ncc4c(N5C[C@H]6CC[C@@H](C5)N6)c(C#N)c(OC[C@@]56CCCN5C[C@H](F)C6)nc4c3F)c12` [Example 191, 4-((1R,5S)-3,8-diazabicyclo[3.2.1]octan-3-yl)-7-(8-ethynyl-7-fluoro-3-hydroxynaphthalen-1-yl)-8-fluoro-2-(((2R,7aS)-2-fluorotetrahydro-1H-pyrrolizin-7a(5H)-yl)methoxy)-1,6-naphthyridine-3-carbonitrile], the IC50 stood at 120 nM.

On to `C#Cc1nccc2cc(O)cc(-c3ncc4c(NCC5(N(C)C)CCC5)nc(OC[C@@]56CCCN5C[C@H](F)C6)nc4c3F)c12` [Example 424, 8-(4-(((1-(dimethylamino)cyclobutyl)methyl)amino)-8-fluoro-2-(((2R,7aS)-2-fluorotetrahydro-1H-pyrrolizin-7a(5H)-yl)methoxy)pyrido[4,3-d]pyrimidin-7-yl)-1-ethynylisoquinolin-6-ol], for which the IC50 amounted to 30 nM.

As to `O=C(CO)N1CCC(c2nc(OC[C@@]34CCCN3C[C@H](F)C4)nc3c(F)c(-c4cc(O)cc5ccc(F)c(F)c45)ncc23)C1` (stereo partly drawn) [Example 85, 1-(3-(7-(7,8-difluoro-3-hydroxynaphthalen-1-yl)-8-fluoro-2-(((2R,7aS)-2-fluorotetrahydro-1H-pyrrolizin-7a(5H)-yl)methoxy)pyrido[4,3-d]pyrimidin-4-yl)pyrrolidin-1-yl)-2-hydroxyethan-1-one], the IC50 was over 1000 nM.

As for `CCc1c(F)ccc2cc(O)cc(-c3c(F)c4nc(OC[C@@]56CCCN5C[C@H](F)C6)nc(N5C[C@H]6CC[C@@H](C5)N6)c4c4cncn34)c12` [Example 416, 4-(1-((1R,5S)-3,8-diazabicyclo[3.2.1]octan-3-yl)-5-fluoro-3-(((2R,7aS)-2-fluorotetrahydro-1H-pyrrolizin-7a(5H)-yl)methoxy)imidazo[1′,5′:1,2]pyrido[4,3-d]pyrimidin-6-yl)-5-ethyl-6-fluoronaphthalen-2-ol], the IC50 came out at 28 nM.

Consider `C#Cc1c(F)ccc2cc(O)cc(-c3ncc4c(N5CCC6(CCCN6)CC5)nc(OC[C@@]56CCCN5C[C@H](F)C6)nc4c3F)c12` [Example 47, 5-ethynyl-6-fluoro-4-(8-fluoro-2-(((2R,7aS)-2-fluorotetrahydro-1H-pyrrolizin-7a(5H)-yl)methoxy)-4-(1,8-diazaspiro[4.5]decan-8-yl)pyrido[4,3-d]pyrimidin-7-yl) naphthalen-2-ol], for which the IC50 amounted to 4540 nM.

As for `Oc1cc2c(c(-c3ncc4c(N5C[C@H]6CC[C@@H](C5)N6)nc(OC[C@@]56CCCN5C[C@H](F)C6)nc4c3F)c1)C1(CC2)CC1` [Example 255, 7′-(4-((1R,5S)-3,8-diazabicyclo[3.2.1]octan-3-yl)-8-fluoro-2-(((2R,7aS)-2-fluorotetrahydro-1H-pyrrolizin-7a(5H)-yl)methoxy)pyrido[4,3-d]pyrimidin-7-yl)-2′,3′-dihydrospiro[cyclopropane-1,1′-inden]-5′-ol], the IC50 was determined as 157 nM.

With `C#Cc1c(F)ccc2cc(O)cc(-c3ncc4c(N5C[C@H]6CC[C@@H](C5)N6)c(C(F)(F)F)c(OC[C@@]56CCCN5C[C@H](F)C6)nc4c3F)c12` [Example 196, 4-(4-((1R,5S)-3,8-diazabicyclo[3.2.1]octan-3-yl)-8-fluoro-2-(((2R,7aS)-2-fluorotetrahydro-1H-pyrrolizin-7a(5H)-yl)methoxy)-3-(trifluoromethyl)-1,6-naphthyridin-7-yl)-5-ethynyl-6-fluoronaphthalen-2-ol], the IC50 was over 2500 nM.
